From US11040117B2, “Treatment of a subtype of ASD” (Stalicla S.A., priority 2017, dated 2021)

test system: ASD phenotype 1 lymphoblastoid cell lines; experiment: Biolog Phenotype Mammalian MicroArrays (PM-M): NADH production, colorimetric redox dye; type: cell-based, human; conditions: cells exposed to the substance; AUC and endpoint absorbance
Experimental: From all subjects, blood samples were collected and lymphoblastoid cell lines generated. Briefly, tubes containing anticoagulant citrate dextrose (ACD) were used to collect blood samples via venipuncture, in order to ensure that the blood cells remained metabolically active. The tubes were kept at room temperature and processed within 24 hours.
Cell lines were obtained by immortalization of lymphocytes from blood samples using Epstein-Barr virus.
Energy production of cells was measured using commercially available Phenotype Mammalian MicroArrays (PM-Ms, Biolog, Hayward, Calif., USA).
The compound in each well was designed to be used by the cells, either as the sole energy source or as the metabolic effector influencing the utilization of an energy source (α-D-glucose) added in the cell suspension. […] Before plating, cell viability and number were assessed utilizing a BioRad cell counter and a trypan blue dye. The concentration of live cells required for plating was 4×10^5 cells/mL, corresponding to 20,000 cells per well in a volume of 50 μL. […] Cells were incubated for 48 h at 37° C. in 5% CO2, using the modified Biolog IF-M1 medium.
The Biolog IF-M1 medium was modified for plates PM-M1 to M4 by adding the following to 100 mL of Biolog IF-M1: 1.1 mL of 100× penicillin/streptomycin solution, 0.16 mL of 200 mM glutamine (final concentration 0.3 mM), and 5.3 mL of Fetal Bovine Serum (FBS, final concentration 5%). For plates PM-M5 to M8, 5.5 mM α-D-glucose will be added in place of FBS.
During the 48-hour incubation, the only energy source the cells had was the chemical in the well. After this first incubation, Biolog Redox Dye Mix MB was added (10 μL/well) and the plates were incubated under the same conditions for an additional 24 hours. As the cells metabolized the energy source, tetrazolium dye in the media was reduced, producing a purple color according to the amount of NADH generated.
For the last 24 hours of the experiment, the plates were incubated in the Omnilog system, which collects optical density readings every 15 minutes, generating 96 data-points for each well. The system also elaborated the kinetic curve for the metabolic reaction in each well and extrapolated parameters such as slope, highest point, endpoint, area under the curve (AUC), and lag.
At the end of the 24-hour incubation, the plates were analyzed utilizing a microplate reader with readings at 590 and 750 nm. The first value (A590) indicated the highest absorbance peak of the redox dye and the second value (A750) gave a measure of the background noise. The relative absorbance (A590-750) was calculated per well.

Q: For “FGF-1(aFGF): growth factor that selectively targets the PI3K-Akt-mTOR by binding the receptor tyrosine kinase”, which “production of NADH in ASD phenotype 1 cells compared to TDs and non-phenotype 1 cells” value is on record?
A: significantly reduced production of NADH

Q: How did the “production of NADH in ASD phenotype 1 cells compared to TDs and non-phenotype 1 cells” value turn out when “IGF-I: insulin-like growth factor 1; targets less specifically the PI3K-AKT-mTOR pathway in LCLs” was run?
A: no significant differences

Q: For IL-1beta: Th1 cytokine, which “production of NADH in ASD phenotype 1 cells compared to TDs and non-phenotype 1 cells” value is on record?
A: significantly lower levels of NADH

Q: For IL-6: Th1 cytokine, which “production of NADH in ASD phenotype 1 cells compared to TDs and non-phenotype 1 cells” value is on record?
A: significantly lower levels of NADH

Q: How did the “production of NADH in ASD phenotype 1 cells compared to TDs and non-phenotype 1 cells” value turn out when “PDGF-AB: platelet-derived growth factor AB” was run?
A: no significant differences

Q: How did the “production of NADH in ASD phenotype 1 cells compared to TDs and non-phenotype 1 cells” value turn out when “hGH(Somatotropin): growth factor that selectively targets the PI3K-Akt-mTOR by binding the receptor tyrosine kinase” was run?
A: significantly reduced production of NADH
